Structures are written as SMILES.

One assay addresses T1, Acetylcholinesterase (Rattus norvegicus, UniProt P37136).
T1 sequence (P37136 whole entry): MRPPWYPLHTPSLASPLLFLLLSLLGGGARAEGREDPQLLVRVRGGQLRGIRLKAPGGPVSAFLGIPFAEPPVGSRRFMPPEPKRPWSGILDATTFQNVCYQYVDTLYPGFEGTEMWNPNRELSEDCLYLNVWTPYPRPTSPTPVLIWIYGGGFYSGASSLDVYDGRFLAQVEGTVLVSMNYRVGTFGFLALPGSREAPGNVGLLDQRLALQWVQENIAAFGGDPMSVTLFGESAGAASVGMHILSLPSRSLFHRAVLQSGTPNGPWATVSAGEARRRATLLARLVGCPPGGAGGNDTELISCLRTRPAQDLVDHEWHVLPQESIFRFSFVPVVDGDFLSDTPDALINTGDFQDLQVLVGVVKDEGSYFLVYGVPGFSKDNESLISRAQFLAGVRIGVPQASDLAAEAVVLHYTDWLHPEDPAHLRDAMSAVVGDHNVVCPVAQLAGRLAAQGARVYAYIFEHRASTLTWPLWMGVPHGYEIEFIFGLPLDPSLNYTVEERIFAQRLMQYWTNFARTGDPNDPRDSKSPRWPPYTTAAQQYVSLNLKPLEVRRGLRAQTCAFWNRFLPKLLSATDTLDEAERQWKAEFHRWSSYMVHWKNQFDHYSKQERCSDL
Description: Inhibition of rat brain AChE by Ellman's method. Background: Ellman's reagent forms a yellow product with free thiols.

In another assay the target is Butyrylcholinesterase (Rattus norvegicus, UniProt Q9JKC1). Description: Inhibition of rat plasma BChE by Ellman's method. It is filed as cell-free.
For assay [1], the target named is T2, Acetylcholinesterase and butyrylcholinesterase (AChE and BChE) (Rattus norvegicus) (UniProt P37136+Q9JKC1). Description: Selectivity ratio of IC50 for rat plasma BChE to IC50 for rat brain AChE. It is filed as cell-free.
The target in assay [2] is T2, Acetylcholinesterase and butyrylcholinesterase (AChE and BChE) (Rattus norvegicus). Description: Selectivity ratio of IC50 for rat brain AChE to IC50 rat plasma BChE. It is filed as cell-free.

T2 sequence (Q9JKC1 1-597, one chain of several): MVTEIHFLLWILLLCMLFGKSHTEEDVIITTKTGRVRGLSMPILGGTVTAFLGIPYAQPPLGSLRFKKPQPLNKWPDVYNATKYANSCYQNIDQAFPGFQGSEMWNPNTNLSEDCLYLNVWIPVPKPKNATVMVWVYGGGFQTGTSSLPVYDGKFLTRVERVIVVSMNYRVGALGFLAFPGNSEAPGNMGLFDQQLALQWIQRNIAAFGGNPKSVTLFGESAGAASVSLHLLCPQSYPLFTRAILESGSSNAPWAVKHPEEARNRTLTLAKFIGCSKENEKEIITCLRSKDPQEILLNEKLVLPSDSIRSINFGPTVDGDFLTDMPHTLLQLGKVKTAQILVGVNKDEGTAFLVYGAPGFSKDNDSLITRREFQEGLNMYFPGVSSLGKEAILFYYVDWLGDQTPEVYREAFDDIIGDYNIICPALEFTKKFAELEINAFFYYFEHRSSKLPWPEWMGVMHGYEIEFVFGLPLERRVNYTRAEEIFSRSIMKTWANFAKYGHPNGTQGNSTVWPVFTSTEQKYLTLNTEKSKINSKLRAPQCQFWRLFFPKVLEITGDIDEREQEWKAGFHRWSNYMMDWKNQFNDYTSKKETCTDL
Sequence of Butyrylcholinesterase (Q9JKC1 whole entry): as the sequence (Q9JKC1 1-597, one chain of several) above

For the compound `Cc1c(Cl)cccc1NC(=O)Oc1ccc2c(c1)[C@]1(C)CCN(C)[C@@H]1N2C`, the figures for the IC50 on Acetylcholinesterase and against Butyrylcholinesterase were 6.4 nM and 113 nM, respectively. In assay [1], the Ratio IC50 came to 18.
Taken in the same sequence, the figures for `CN1CC[C@@]2(C)c3cc(OC(=O)Nc4cccc5ccccc45)ccc3N(C)[C@@H]12` were 4.2 nM, 14.1 nM and 3.
Taken in the same sequence, the figures for `CN1CC[C@@]2(C)c3cc(OC(=O)Nc4cccc(Cl)c4Cl)ccc3N(C)[C@@H]12` were 66.2 nM, 517 nM and 8.
As to `CN1CC[C@@]2(C)c3cc(OC(=O)Nc4cccc(C#N)c4)ccc3N(C)[C@@H]12`, the half-inhibitory concentration (IC50) is 442 nM at Acetylcholinesterase and 1020 nM on Butyrylcholinesterase. Further, the Ratio IC50 in assay [1] is 4.
In the case of `COc1ccc(NC(=O)Oc2ccc3c(c2)[C@]2(C)CCN(C)[C@@H]2N3C)cc1`, the IC50 amounted to 29.9 nM at Acetylcholinesterase and 5.8 nM against Butyrylcholinesterase. In assay [2], the Ratio IC50 came to 5.
For the compound `CN1CC[C@@]2(C)c3cc(OC(=O)Nc4cc(Cl)cc(Cl)c4)ccc3N(C)[C@@H]12`, the IC50 against Acetylcholinesterase was 113 nM; against Butyrylcholinesterase, 935 nM. For the same compound, in assay [1], the Ratio IC50 worked out at 8.
As to `CN1CC[C@@]2(C)c3cc(OC(=O)Nc4ccccc4)ccc3N(C)[C@@H]12` [PHENSERINE], the IC50 came out at 11.9 nM at Acetylcholinesterase and 104 nM at Butyrylcholinesterase. Further, in assay [1], the Ratio IC50 turned out to be 10.
In the same order, the values of `CN1CC[C@@]2(C)c3cc(OC(=O)NC4CCCCC4)ccc3N(C)[C@@H]12` are 8.5 nM, 1400 nM and 174.
In the same order, the values of `CN1CC[C@@]2(C)c3cc(OC(=O)Nc4cccc(Cl)c4)ccc3N(C)[C@@H]12` are 38.7 nM, 105 nM and 3.
Consider `CN1CC[C@@]2(C)c3cc(OC(=O)Nc4ccccc4Cl)ccc3N(C)[C@@H]12`, for which the IC50 was determined as 264 nM against Acetylcholinesterase and 88.7 nM against Butyrylcholinesterase. For the same compound, the Ratio IC50 in assay [2] came out at 3.
For `CNC(=O)Oc1ccc2c(c1)[C@]1(C)CCN(C)[C@@H]1N2C` [PHYSOSTIGMINE], inhibition at Butyrylcholinesterase was half-maximal at 7.6 nM (IC50).
As to `CC(C)c1cccc(C(C)C)c1NC(=O)Oc1ccc2c(c1)[C@]1(C)CCN(C)[C@@H]1N2C`, the concentration for half-maximal inhibition (IC50) against Acetylcholinesterase was 735 nM; against Butyrylcholinesterase it was 830 nM.
As for `CN1CC[C@@]2(C)c3cc(OC(=O)Nc4ccc(Cl)cc4)ccc3N(C)[C@@H]12`, the IC50 came to 914 nM on Acetylcholinesterase and 61.3 nM on Butyrylcholinesterase. Besides, the Ratio IC50 in assay [2] is 15.
As for `CN1CC[C@@]2(C)c3cc(OC(=O)Nc4ccc(Br)cc4)ccc3N(C)[C@@H]12`, the IC50 against Acetylcholinesterase is 168 nM; against Butyrylcholinesterase, 14.9 nM. In assay [2], the Ratio IC50 was found to be 7.
For `Cc1ccc(NC(=O)Oc2ccc3c(c2)[C@]2(C)CCN(C)[C@@H]2N3C)cc1Cl`, the IC50 against Acetylcholinesterase came to 7.3 nM; against Butyrylcholinesterase, 8.5 nM.
In the same order, the values of `CN1CC[C@@]2(C)c3cc(OC(=O)Nc4ccccc4Br)ccc3N(C)[C@@H]12` are 66.5 nM and 39.6 nM.

In general, IC50 refers to the concentration at which inhibition is half-maximal. Higher therefore signals weaker potency in that assay.

Source of the values: ChEMBL document CHEMBL1154973 (Bioorg Med Chem Lett, 2010).
